One test concerns the target D(3) dopamine receptor (Homo sapiens, UniProt P35462). In words: Ability to displace [3H]spiperone from the cloned human D3 dopamine receptor stably expressed in Chinese hamster ovary (CHO) cells was determined. It is filed as cell-based.
The next test has as its target T1, D(4) dopamine receptor (Homo sapiens, UniProt P21917).
T1 sequence (P21917 whole entry): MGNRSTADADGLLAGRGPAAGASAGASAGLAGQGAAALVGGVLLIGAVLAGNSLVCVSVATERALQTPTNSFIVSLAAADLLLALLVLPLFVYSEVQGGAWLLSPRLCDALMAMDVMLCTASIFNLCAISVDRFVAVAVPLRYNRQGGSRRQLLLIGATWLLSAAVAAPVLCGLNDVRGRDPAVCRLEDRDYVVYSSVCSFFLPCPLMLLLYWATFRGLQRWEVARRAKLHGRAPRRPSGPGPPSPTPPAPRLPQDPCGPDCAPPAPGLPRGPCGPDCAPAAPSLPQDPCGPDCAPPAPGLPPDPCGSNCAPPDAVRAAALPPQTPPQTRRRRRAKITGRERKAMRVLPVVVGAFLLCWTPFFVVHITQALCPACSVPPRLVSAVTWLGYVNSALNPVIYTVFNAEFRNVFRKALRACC
Kind of test: Binding affinity of compound towards human cloned Dopamine receptor D4.4 expressed in CHO cells using [3H]spiperone as radioligand. Type of test: cell-based.

Test [1] has as its target T2, D(2) dopamine receptor (Homo sapiens, UniProt P14416). Kind of test: Ability to displace [3H]spiperone from the cloned human Dopamine receptor D2L stably expressed in Chinese hamster ovary (CHO) cells was determined. Type of test: cell-based.
In test [2] the target is T2, D(2) dopamine receptor. Kind of test: Ability to displace [3H]spiperone from the cloned human Dopamine receptor D2S stably expressed in Chinese hamster ovary (CHO) cells was determined. Type of test: cell-based.
For the next test, the target named is D(1A) dopamine receptor (Bos taurus, UniProt Q95136). In words: Ability to displace D1 selective radioligand [3H]-SCH- 23390 in bovine striatal membrane preparations was determined. Type of test: cell membranes, Striatum.

Some results are limits rather than exact numbers.

Chain of D(3) dopamine receptor (P35462 whole entry): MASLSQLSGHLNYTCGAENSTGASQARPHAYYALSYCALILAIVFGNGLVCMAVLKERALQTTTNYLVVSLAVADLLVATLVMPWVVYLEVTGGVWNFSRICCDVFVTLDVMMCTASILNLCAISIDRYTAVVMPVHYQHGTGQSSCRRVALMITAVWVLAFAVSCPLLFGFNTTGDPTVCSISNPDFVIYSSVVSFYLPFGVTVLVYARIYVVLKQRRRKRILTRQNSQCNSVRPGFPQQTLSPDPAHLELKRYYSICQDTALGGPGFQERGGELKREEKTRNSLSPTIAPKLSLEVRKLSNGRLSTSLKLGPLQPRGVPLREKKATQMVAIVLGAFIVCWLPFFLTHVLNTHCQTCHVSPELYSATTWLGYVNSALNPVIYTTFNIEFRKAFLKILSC
T2 sequence (P14416 whole entry): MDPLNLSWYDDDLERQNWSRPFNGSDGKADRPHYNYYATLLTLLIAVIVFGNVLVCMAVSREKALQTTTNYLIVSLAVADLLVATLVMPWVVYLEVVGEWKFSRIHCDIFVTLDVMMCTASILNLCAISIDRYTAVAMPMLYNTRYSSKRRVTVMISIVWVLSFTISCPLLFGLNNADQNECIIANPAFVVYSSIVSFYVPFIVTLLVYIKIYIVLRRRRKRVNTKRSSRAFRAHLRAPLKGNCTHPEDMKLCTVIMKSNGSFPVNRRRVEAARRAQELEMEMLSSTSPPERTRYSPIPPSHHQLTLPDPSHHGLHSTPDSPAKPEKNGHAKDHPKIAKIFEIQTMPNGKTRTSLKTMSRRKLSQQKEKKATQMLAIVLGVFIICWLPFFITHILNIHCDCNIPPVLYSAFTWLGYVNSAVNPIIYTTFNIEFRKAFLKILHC
Chain of D(1A) dopamine receptor (Q95136 whole entry): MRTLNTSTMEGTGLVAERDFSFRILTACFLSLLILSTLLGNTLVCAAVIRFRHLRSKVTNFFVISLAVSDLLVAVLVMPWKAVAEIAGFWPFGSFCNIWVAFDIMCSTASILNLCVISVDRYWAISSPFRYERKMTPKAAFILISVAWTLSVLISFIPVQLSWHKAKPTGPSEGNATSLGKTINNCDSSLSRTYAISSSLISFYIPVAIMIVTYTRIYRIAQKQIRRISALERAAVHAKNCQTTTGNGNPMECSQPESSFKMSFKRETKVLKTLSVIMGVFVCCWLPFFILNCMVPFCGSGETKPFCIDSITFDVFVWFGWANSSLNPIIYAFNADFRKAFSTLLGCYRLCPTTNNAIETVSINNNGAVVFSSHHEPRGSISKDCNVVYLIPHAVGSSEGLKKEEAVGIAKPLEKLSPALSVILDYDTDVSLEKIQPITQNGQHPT

In the case of `N#CC(C#N)=Cc1ccc(CN2CCN(c3ccccc3)CC2)[nH]1`, the inhibition constant (Ki) on D(3) dopamine receptor is 5.25 µM; on D(4) dopamine receptor, 0.0093 µM; at D(2) dopamine receptor [1], > 100 µM; at D(2) dopamine receptor [2], > 100 µM; at D(1A) dopamine receptor it was 58 µM.

`N#CC(C#N)=Cc1cc(CN2CCN(c3ccc(Cl)cc3)CC2)c[nH]1`: the Ki was 6.95 µM at D(3) dopamine receptor; 0.0057 µM on D(4) dopamine receptor; 7.35 µM on D(2) dopamine receptor [1]; 10.3 µM on D(2) dopamine receptor [2]; 5.3 µM at D(1A) dopamine receptor.

Turning to `N#CC(C#N)=Cc1cc(CN2CCN(c3ccccc3)CC2)c[nH]1`, the inhibition constant Ki on D(3) dopamine receptor came to 2.35 µM; at D(4) dopamine receptor, 0.0039 µM; on D(2) dopamine receptor [1], 1.85 µM; at D(2) dopamine receptor [2], 0.975 µM; at D(1A) dopamine receptor, 7.2 µM.

Regarding `N#CC(C#N)=Cc1[nH]ccc1CN1CCN(c2ccc(Cl)cc2)CC1`, the inhibitory constant (Ki) at D(3) dopamine receptor was found to be 7.6 µM; on D(4) dopamine receptor it was 0.125 µM; on D(2) dopamine receptor [1], 8.95 µM; on D(2) dopamine receptor [2] it was 15 µM; on D(1A) dopamine receptor, 13.5 µM.

`N#CC(C#N)=Cc1ccc(CN2CCN(c3ccc(Cl)cc3)CC2)[nH]1`: the Ki was found to be 31 µM at D(3) dopamine receptor; 0.011 µM on D(4) dopamine receptor; 48.5 µM on D(2) dopamine receptor [1]; 59 µM on D(2) dopamine receptor [2]; 39.5 µM at D(1A) dopamine receptor.

On to `N#CC(C#N)=Cc1[nH]ccc1CN1CCN(c2ccccc2)CC1`, for which the Ki worked out at 6.95 µM on D(3) dopamine receptor; 0.16 µM on D(4) dopamine receptor; 4 µM at D(2) dopamine receptor [1]; 12.8 µM at D(2) dopamine receptor [2]; 22 µM on D(1A) dopamine receptor.

As a reminder, the Ki is a measure of affinity in units of concentration, obtained from inhibition or displacement.
